Measured values published in patent publication US20240299408A1, “METHODS OF TREATING 4-REPEAT TAUOPATHIES” (Woolsey Pharmaceuticals, Inc., priority 2020, published 2024).
Where a name gives a salt, the structure may show the parent alone.

B1: ABBV-8E12: humanized anti-tau monoclonal antibody (antibody, chains of the INN, looked up, V domains shown)
VH: EVKVVESGGGLVQPGGSMKLSCVVSGFTFSNYWVNWVRQAPGKGLEWVAQIRLKSDNYATHYEESVKGRFTISRDDSKSSVYLQMNNLRAEDSGIYYCTNWEDYWGQGTTVTVSS
VL: DIVLTQSPDSLAVSLGERATISCRASQSVSTSRYSYIHWYQQKPGQPPKLLIKYASNLESGVPSRFSGSGSGTDFTLNIHPLEPEDFATYYCHHSWEIPLTFGQGTKLEIK
B2: Gosuranemab: humanized monoclonal antibody that targets N-terminal tau (antibody, chains of the INN, looked up, V domains shown)
VH: EVHLVESGGALVKPGGSLRLSCAASGFSFSKYGMSWVRQAPGKGLEWVATISSSGSRTYYPDSVKGRFTISRDNAKNTLYLQMNSLRAEDTAMYYCSISWDGAMDYWGQGTTVTVSS
VL: DVVMTQSPLSLPVTLGQPASISCKSSQSIVHSNGNTYLEWYLQKPGQSPQLLVYKVSNRFSGVPDRFSGSGSGTDFTLKISRVEAEDVGTYYCFQGSLVPWAFGGGTKVEIK

Assays:
[1] = in vivo, 1-hydroxy metabolite; cited from earlier work
PSP patients = details: cited from earlier work; for effect or benefit in clinical trial in PSP: PSP patients (riluzole: PSP and MSA)
[2] = test system: subjects with probable or possible PSP; test: treatment of probable or possible PSP subjects with fasudil, assessments at six months and one year versus baseline and historical controls; format: in vivo, human

Row | Molecule | effect or benefit in clinical trial in PSP (PSP patients) | other results
1 | O=S(=O)(c1cccc2c(O)nccc12)N1CCCNCC1 [M3] |  | half-life [1]: about 8 hours
2 | Nc1nc2ccc(OC(F)(F)F)cc2s1 [riluzole] | failed to demonstrate effects | 
3 | C=CC1O[C@H]2C[C@H]3OC[C@@]3(OC(C)=O)[C@H]3[C@H](OC(=O)c4ccccc4)[C@]4(O)C[C@H](OC(=O)[C@H](O)[C@H](CC(C)C)NC(=O)OC(C)(C)C)C(C)=C([C@H](OC(C)=O)[C@H](O1)[C@]23C)C4(C)C (stereo partly drawn) [TPI 287] | failed to show any effect | 
4 | O=C(Oc1ccccc1C(=O)O)c1ccccc1O [Salsalate] | failed | 
5 | COC1=C(OC)C(=O)C(C/C=C(\C)CC/C=C(\C)CC/C=C(\C)CC/C=C(\C)CC/C=C(\C)CC/C=C(\C)CC/C=C(\C)CC/C=C(\C)CC/C=C(\C)CCC=C(C)C)=C(C)C1=O [coenzyme Q10] | failed to provide benefit | 
6 | O=S(=O)(c1cccc2cnccc12)N1CCCNCC1 [fasudil, Hexahydro-1-(5-isoquinolinesulfonyl)-1H-1,4-diazepine monohydrochloride hemihydrate] |  | oculomotor and sleep parameters ([2]; fasudil 180 mg/day): improve; PSP-RS increase over a year ([2]; fasudil 180 mg/day (60 mg tid), average is closer to 10): ≤ 5 point
7 | O=c1sn(-c2cccc3ccccc23)c(=O)n1Cc1ccccc1 [tideglusib] | failed to show benefit | 
8 | [Li] [lithium] |  | tolerability in open-label trial in PSP (PSP patients; open-label trial in PSP): terminated due to poor tolerability
9 | CC[C@H](C)[C@H](NC(=O)[C@H](CO)NC(=O)[C@@H](NC(=O)[C@@H]1CCCN1C(=O)[C@H](C)NC(=O)[C@@H](N)CC(N)=O)C(C)C)C(=O)N1CCC[C@H]1C(=O)N[C@@H](CCC(N)=O)C(=O)O [Davunetide] | not shown not to be effective | 
10 | B1 | failed to demonstrate an effect | 
11 | B2 | no effect | 
